According to patent publication US6461997B1, “Triazole sulfones having herbicidal activity” (Monsanto Technology LLC, priority 1999, dated 2002):

What was measured:
DATST (jimsonweed) = test: Pre-plant incorporated (PPI) herbicidal activity, warm season; format: in vivo, Datura stramonium; conditions: for PPI activity (GR80) DATST: pre-plant incorporated, GR80 = lowest tested rate with 80% or greater inhibition, approx. 14 days after treating, 30/21° C.
Experimental: (§1) In another set of tests, the pre-plant incorporated (PPI) activity of compounds of this invention was evaluated on the same species as for the pre-emergence tests described above. In the PPI tests the following procedure, designed to simulate PPI application, was used.
(§2) A pre-prepared topsoil mixture (described above) was placed in a pot and compacted to a depth of 1.0 to 1.25 cm from the top of the pot. Seeds of each of several monocotyledonous and dicotyledonous annual plant species were placed on top of the soil. A sufficient quantity of soil to cover the seeds and level fill the pot was weighed into an open container. A known amount of the test compound was dissolved or suspended in an organic solvent and applied by spraying to this cover soil. The cover soil was thoroughly mixed to distribute the test compound throughout the cover soil, and was then applied as a cover layer over the seeds. Untreated soil was used as a cover layer for control pots. After treatment the plants were placed in a greenhouse where they received 0.64 cm of overhead irrigation. All subsequent watering consisted of a light overhead mist and/or subirrigation as needed for germination and growth. Tables 9 and 10 below relate to warm season plant species which were placed after pre-emergence treatment in a greenhouse with a 30/21° C. day/night temperature regime. Tables 11 and 12 below relates to cool season plant species placed after pre-emergence treatment in a greenhouse or growth chamber with an 18/13° C. day/night temperature regime. Only the compounds of Examples 1, 6, 8, 11, 13 and 15-20 were included in PPI tests.
(§3) Approximately 14 days after planting and treating, the plants were observed and herbicidal efficacy recorded as percent inhibition by comparison with untreated plants.

[1] = system: CHEAL (common lambsquarters); test: Pre-emergence herbicidal activity, warm season; format: in vivo, Chenopodium album; conditions: GR80 = lowest tested rate (300, 100, 30, 10 g/ha) with 80% or greater inhibition; approx. 14 days after treating; 30/21° C.
Procedure, shortened: (§4)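 Seeds sown in sterilised fertilised topsoil received surface-applied compound in 50:50 acetone/water, typically at 300, 100, 30 and 10 g/ha, then greenhouse-grown at 30/21° C (warm-season species) or 18/13° C (cool-season species). Percent inhibition versus untreated plants was scored at about 14 days, giving GR80; an asterisk marks activity short of 80% at the top rate.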

ECHCG (barnyardgrass) = test: Pre-emergence herbicidal activity, warm season; format: in vivo, Echinochloa crus-galli; conditions: for Pre-emergence activity (GR80) ECHCG: GR80 = lowest tested rate (300, 100, 30, 10 g/ha) with 80% or greater inhibition, approx. 14 days after treating, 30/21° C.
Procedure, shortened: (§5)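 GR80 values derive from percent inhibition relative to untreated plants, read roughly 14 days after sowing and pre-emergence soil-surface treatment (compound in 50:50 acetone/water; rates typically 10, 30, 100, 300 g/ha). Warm-season weeds grew at 30/21° C day/night, cool-season ones at 18/13° C; an asterisk marks activity without reaching 80% at the highest rate.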

SASKR (russian thistle) = test: Pre-emergence herbicidal activity, cool season; format: in vivo, Salsola kali; conditions: lowest tested rate with 80% or greater inhibition; rates 300, 100, 30, 10 g/ha; about 14 days
Procedure, shortened: as §4

LOLMG (annual ryegrass) = test: Post-emergence herbicidal activity, cool season; format: in vivo, Lolium multiflorum; conditions: abraded plants sprayed at 300, 100, 30 and 10 g/ha; about 14 days after treatment
Procedure, shortened: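 Seedlings grown from seed in topsoil pots were treated 9 to 14 days after planting, foliage first abraded with garnet particles, then sprayed with test compound in 50:50 acetone/water at 300, 100, 30 and 10 g/ha (3,100 l/ha). Kept at 18/13° C. day/night, percent inhibition versus abraded unsprayed controls was scored about 14 days later and GR80 assigned.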

[2] = system: SORHA (johnsongrass (seedling)); test: Pre-emergence herbicidal activity, warm season; format: in vivo, Sorghum halepense; conditions: for Pre-emergence activity (GR80) SORHA: GR80 = lowest tested rate (300, 100, 30, 10 g/ha) with 80% or greater inhibition, approx. 14 days after treating, 30/21° C.
Procedure, shortened: as §5

SETVI (green foxtail) = test: Pre-emergence herbicidal activity, cool season; format: in vivo, Setaria viridis; conditions: GR80 = lowest tested rate (300, 100, 30, 10 g/ha) with 80% or greater inhibition; approx. 14 days after treating; 18/13° C.
Procedure, shortened: as §4

SOLNI (black nightshade) = test: Pre-plant incorporated (PPI) herbicidal activity, warm season; format: in vivo, Solanum nigrum; conditions: for PPI activity (GR80) SOLNI: pre-plant incorporated, GR80 = lowest tested rate with 80% or greater inhibition, approx. 14 days after treating, 30/21° C.
Experimental: as §1, §2, §3

[3] = Datura stramonium, PPI application, 30 g/ha, read-out: Percent inhibition DATST
[4] = Datura stramonium, PPI application, 100 g/ha, read-out: Percent inhibition DATST
[5] = Datura stramonium, PPI application, 300 g/ha, read-out: Percent inhibition DATST
[6] = Datura stramonium, PPI application, 900 g/ha, read-out: Percent inhibition DATST
[7] = Solanum nigrum, PPI application, 30 g/ha, read-out: Percent inhibition SOLNI
[8] = Solanum nigrum, PPI application, 100 g/ha, read-out: Percent inhibition SOLNI
[9] = Solanum nigrum, PPI application, 300 g/ha, read-out: Percent inhibition SOLNI
[10] = Solanum nigrum, PPI application, 900 g/ha, read-out: Percent inhibition SOLNI

| SMILES | inhibition at 30 g/ha (DATST (jimsonweed); [3]) [%] | inhibition at 100 g/ha (DATST (jimsonweed); [4]) [%] | inhibition at 300 g/ha (DATST (jimsonweed); [5]) [%] | inhibition at 900 g/ha (DATST (jimsonweed); [6]) [%] | PPI activity (GR80) DATST (DATST (jimsonweed)) [g/ha] | Pre-emergence activity (GR80) CHEAL [1] [g/ha] | Pre-emergence activity (GR80) ECHCG (ECHCG (barnyardgrass)) [g/ha] | Pre-emergence activity GR80, SASKR (SASKR (russian thistle)) | Post-emergence activity GR80, LOLMG (LOLMG (annual ryegrass)) | Pre-emergence activity (GR80) SORHA [2] [g/ha] | Pre-emergence activity (GR80) SETVI (SETVI (green foxtail)) [g/ha] | PPI activity (GR80) SOLNI (SOLNI (black nightshade)) [g/ha] | Percent inhibition DATST (DATST (jimsonweed); PPI application, 30 g/ha) [%] | Percent inhibition DATST (DATST (jimsonweed); PPI application, 100 g/ha) [%] | Percent inhibition DATST (DATST (jimsonweed); PPI application, 300 g/ha) [%] | Percent inhibition DATST (DATST (jimsonweed); PPI application, 900 g/ha) [%] | Percent inhibition SOLNI (SOLNI (black nightshade); PPI application, 30 g/ha) [%] | Percent inhibition SOLNI (SOLNI (black nightshade); PPI application, 100 g/ha) [%] | Percent inhibition SOLNI (SOLNI (black nightshade); PPI application, 300 g/ha) [%] | Percent inhibition SOLNI (SOLNI (black nightshade); PPI application, 900 g/ha) [%] | further results |
| --- | --- | --- | --- | --- | --- | --- | --- | --- | --- | --- | --- | --- | --- | --- | --- | --- | --- | --- | --- | --- | --- |
| CCN(CC)C(=O)n1cnc(S(=O)(=O)C(F)(F)Br)n1 [Example 1, 3-(bromodifluoromethylsulfonyl)-1-(N,N-diethylcarbamoyl)-1,2,4-triazole] | 0 | 0 | 40 | 95 | 30 | 300 | 30 | 300 g/ha | [empty] | 30 | 30 | 30 |  |  |  |  |  |  |  |  | inhibition at 10 g/ha (DATST (jimsonweed); Datura stramonium, PPI application, 10 g/ha, read-out: Percent inhibition DATST): 0%; inhibition at 10 g/ha (ECHCG (barnyardgrass); Echinochloa crus-galli, pre-emergence application, 10 g/ha, read-out: Percent inhibition, weed ECHCG): 0%; inhibition at 30 g/ha (ECHCG (barnyardgrass); Echinochloa crus-galli, pre-emergence application, 30 g/ha, read-out: Percent inhibition, weed ECHCG): 10%; inhibition at 100 g/ha (ECHCG (barnyardgrass); Echinochloa crus-galli, pre-emergence application, 100 g/ha, read-out: Percent inhibition, weed ECHCG): 45%; inhibition at 300 g/ha (ECHCG (barnyardgrass); Echinochloa crus-galli, pre-emergence application, 300 g/ha, read-out: Percent inhibition, weed ECHCG): 80%; inhibition at 900 g/ha (ECHCG (barnyardgrass); Echinochloa crus-galli, pre-emergence application, 900 g/ha, read-out: Percent inhibition, weed ECHCG): 95%; inhibition at 10 g/ha ([2]; Sorghum halepense, pre-emergence application, 10 g/ha, read-out: Percent inhibition, weed SORHA): 0%; inhibition at 30 g/ha ([2]; Sorghum halepense, pre-emergence application, 30 g/ha, read-out: Percent inhibition, weed SORHA): 0%; inhibition at 100 g/ha ([2]; Sorghum halepense, pre-emergence application, 100 g/ha, read-out: Percent inhibition, weed SORHA): 50%; inhibition at 300 g/ha ([2]; Sorghum halepense, pre-emergence application, 300 g/ha, read-out: Percent inhibition, weed SORHA): 70%; inhibition at 900 g/ha ([2]; Sorghum halepense, pre-emergence application, 900 g/ha, read-out: Percent inhibition, weed SORHA): 99%; inhibition at 10 g/ha (SOLNI (black nightshade); Solanum nigrum, PPI application, 10 g/ha, read-out: Percent inhibition SOLNI): 0%; inhibition at 30 g/ha (SOLNI (black nightshade); [7]): 0%; inhibition at 100 g/ha (SOLNI (black nightshade); [8]): 0%; inhibition at 300 g/ha (SOLNI (black nightshade); [9]): 75%; inhibition at 900 g/ha (SOLNI (black nightshade); [10]): 100% |
| CCSC(F)(F)S(=O)(=O)c1ncn(C(=O)N(CC)CC)n1 [Example 8, 1-(N,N-diethylcarbamoyl)-3-[difluoro(ethylthio)methylsulfonyl]-1,2,4-triazole] | 30 | 60 | 100 | 100 | 100 | 100 | 100 | 300 g/ha | [empty] | 100 | 100 | 100 |  |  |  |  |  |  |  |  | inhibition at 30 g/ha (SOLNI (black nightshade); [7]): 50%; inhibition at 100 g/ha (SOLNI (black nightshade); [8]): 100%; inhibition at 300 g/ha (SOLNI (black nightshade); [9]): 100%; inhibition at 900 g/ha (SOLNI (black nightshade); [10]): 100% |
| CCN(CC)C(=O)n1cnc(S(=O)(=O)C(F)(F)SC)n1 [Example 9] |  |  |  |  |  | 300 | 300 | 300 g/ha | [empty] | 100 | 100 |  | 0 | 0 | 80 | 100 | 95 | 100 | 100 | 99 |  |
| CCN(CC)C(=O)n1cnc(S(=O)(=O)C(F)(F)SCc2ccccc2)n1 [Example 10] |  |  |  |  |  | 300 | 300 | 100 g/ha | [empty] | 100 | 300 |  | 0 | 0 | 20 | 100 | 60 | 100 | 80 | 100 | Percent inhibition DATST (DATST (jimsonweed); PPI application, 10 g/ha): 0%; Percent inhibition SOLNI (SOLNI (black nightshade); PPI application, 10 g/ha): 20% |
| CCN(CC)C(=O)n1cnc(S(=O)(=O)C(F)(F)SCCOC)n1 [Example 13] |  |  |  |  | 300 | 300 | 300 | [empty] | [empty] |  | 100 | 100 | 30 | 50 | 90 | 100 | 30 | 60 | 95 | 100 | Percent inhibition DATST (DATST (jimsonweed); PPI application, 10 g/ha): 0%; Percent inhibition SOLNI (SOLNI (black nightshade); PPI application, 10 g/ha): 0% |
| CCN(CC)C(=O)n1cnc(S(=O)(=O)C(F)(F)C(F)(F)SC)n1 [Example 14] |  |  |  |  |  | 300 | 300 | [empty] | [empty] | 300 | 30 |  |  |  |  |  |  |  |  |  |  |
